Laboratory results taken from a melting point compilation (Tetko et al.; mined from patent text by program, amines drawn as free bases though some values may be those of a salt).

| SMILES | melting point |
| --- | --- |
| CCc1c(Br)c2ccccn2c1C(=O)c1ccc(O)cc1 | 160 to 162 °C |
| OCc1cccc(-c2ccc3nc(-c4ccc(Cl)cc4)cn3c2)c1F | 200 to 202 °C |
| Cc1c(CCCCCCCCCC(=O)O)cccc1C(=O)c1ccc(Cl)cc1 | 74 °C |
| O=C(CC(=O)C1CC1)c1ccccn1 | 77 to 78 °C |
| CCOc1cc(C(=O)OC)cc(OCC)c1N=Nc1ccccc1 | 92 °C |
| Clc1cc(CCc2ccccn2)c2oc(-c3cn[nH]c3)nc2c1 | 204 to 208 °C |
| Cc1cc(CCCCCOc2c(C)cc(-c3noc(C(F)(F)F)n3)cc2C)on1 | 41 to 42 °C |
| CCOc1cc(C)ccc1C1CCN(CCCCNC(=O)c2ccc(C=Cc3ccc(C(F)(F)F)cc3)cc2)CC1 | 210 °C |
| COc1cccc2sc(C3(c4ccc(S(N)(=O)=O)cc4)C=C(C(F)(F)F)NN3)nc12 (configuration not stated) | 276 to 278 °C |
| CCOC(=O)N1CCC(n2c(=O)[nH]c3cc(Cl)ccc32)CC1 | 160 °C |
| N#CSCCNc1cc(Cl)ccc1[N+](=O)[O-] | 115 to 116 °C |
| CC(=O)c1coc(S(N)(=O)=O)c1 | 135 to 136 °C |
| O=C(N[C@H](Cc1cccc(OC(F)(F)C(F)F)c1)[C@@H](O)c1ccc(CO)cc1)c1cccc2c1C=CCCC2 (racemic) | 151 to 152 °C |
| O=C(Nc1ccc(Cl)c(C(F)(F)F)c1)Nc1ccccc1P(=O)(O)O | 153 to 157 °C |
| COc1ccc(-c2c(C(=O)CC(C)C)c(CBr)nc3cc(OC)c(OC)cc23)cc1OC | 159 to 161 °C |
| O=C(O)c1cc(O)c2c(c1)C(=O)c1ccc(F)c(O)c1C2=O | > 275 °C |
| CN1CCc2c(O)c(F)cc3c(=O)c(C(=O)O)cn1c23 | > 290 °C |
| Cc1cc(=O)c2c([nH]1)CCOC2 | > 285 °C |
| CC(C)C(OCCc1ccc(-c2ccc(Cl)cc2)cc1)C(=O)O (configuration not stated) | 91 to 92 °C |
| CCOC(=O)C1=C(C)Nc2ccn(C)c(=O)c2C1c1ccccc1OC (configuration not stated) | 225 °C |
| CC(C)(C)OC(=O)NCCCCCCC(=O)Nc1ccc(-n2nc(C(F)(F)F)cc2C(F)(F)F)cc1 | 86 to 88 °C |
| COc1ccc([C@@H]2Cc3c(cccc3C(F)(F)F)N(CC3=NCCN3C(=O)OC(C)(C)C)C(=O)[C@@H]2O)cc1 | 116 °C |
| Cc1cccc2nc(NC(=O)c3ccc(C(C)(C)C)cc3)cn12 | 204 to 205 °C |
| COc1c(C2CCN(CCCCNC(=O)c3sc(-c4ccc(C#N)cc4)nc3CO)CC2)ccc2c1CCCC2 | 212 °C |
| Cc1cc(C)c2c(c1)c(-c1ccccc1Cl)c(C(=O)O)c(=O)n2C | 162 to 163 °C |
| O=C(CI)N1CCN(C(=O)CI)CC1 | 105 to 109 °C |

| SMILES | melting point |
| --- | --- |
| O=C(Nc1ccc(O)c(O)c1)C12CC3CC(CC(C3)C1)C2 | 196 to 199 °C |
| Clc1ccc(Cl)c(-c2nnnn2Cc2cccnc2)c1 | 166 to 168 °C |
| Cc1ccc2nc(-c3ccc([N+](=O)[O-])cc3)cn2c1 | 237 to 239 °C |
| CCOc1cc2c(Nc3ccc(Sc4nccn4C)c(Cl)c3)c(C#N)cnc2cc1F | 251 to 254 °C |
| N#CN=C1NCCN1Cc1cccnc1 | 126 to 128 °C |
| COc1ccc(SC#N)c([N+](=O)[O-])c1 | 127 to 128 °C |
| CN(C)CCNC(=O)c1cccc2c1c(C(=O)C(=O)NC1=CC(=O)OC1)cn2Cc1ccc(Cl)cc1 | 225 to 227 °C |
| COc1ccc(COC(=O)CC(=O)Oc2cc(-c3cn4c(n3)sc3ccccc34)ccc2Cl)cc1 | 113 to 115 °C |
| CN(C(=O)CN1C(=O)C(NC(=O)Nc2cccc(C#N)c2)N=C(CN2CCOCC2)c2ccccc21)c1ccccc1 (configuration not stated) | 165 to 167 °C |
| Cc1c(-c2ccccc2F)[nH]c(N)c1C#N | 117 to 118 °C |
| CCn1c(=O)c2c(nc(/C=C/c3cc(OC)c(O)c(OC)c3)n2C)n(CC)c1=O | 226 °C |
| CC(=O)NC(=O)C(=O)c1ccccc1 | 124 to 125 °C |
| c1cnc2[nH]cc(CN3CCN(c4ccc5c(c4)OCO5)CC3)c2c1 | 196 to 199 °C |
| NS(=O)(=O)c1ccc(-n2nc(C(F)(F)F)cc2-c2ccc(-c3cnco3)cc2)cc1 | 128 to 130 °C |
| CCCCCCCCCCCCCCOc1ccccc1C(=O)OC | 39 to 40 °C |
| Cc1cccc(N2CCOC2=O)c1CNc1cccn2c(C=O)c(C)nc12 | 196 to 197 °C |
| CCc1noc(-c2cn(-c3nc[nH]n3)cn2)n1 | 242 to 243 °C |
| O=C1N=CC(OCC2CC2)(C(F)(F)F)c2cc(Cl)ccc2N1 (configuration not stated) | 185 to 186 °C |
| Cc1cccc2c1C(=O)/C(=C(\N)c1ccccc1)S2 | 198 to 200 °C |
| CC(=O)c1cccc(NC(=O)C(C)(C)C)c1 | 130 to 133 °C |
| CC(C)C1c2ccc(F)cc2CCC1(O)CCO (configuration not stated) | 78 to 80 °C |
| CC(=O)Nc1ccc(OC2CCC3C4CCC5N(C)C(=O)CCC5(C)C4CCC23C)cc1 (configuration not stated) | 340 °C |
| CNc1nc(SC)ncc1CO | 155 to 157 °C |
| O=C(O)c1c(Cc2cc3c(cc2Cl)OCO3)c(-c2ccccc2)nn1CC1CCCC(C(=O)O)C1 (configuration not stated) | 130 °C |
| CCC(C)C(=O)c1nc(C)nc2c1c(C)c(C)n2-c1c(C)cc(C)cc1C (configuration not stated) | 133 to 135 °C |
| CCOC(=O)/C=C/c1cc(-c2ccccc2)n(-c2ccc(S(C)(=O)=O)cc2)n1 | 164 to 168 °C |

| SMILES | melting point |
| --- | --- |
| O=C(O)c1ccc(CCNC(=O)C2Cc3ccccc3N2S(=O)(=O)c2ccc(-c3cccc(C(F)(F)F)c3)cc2)cc1 (configuration not stated) | 106 °C |
| CC(O)(c1ccc(F)cc1)c1ccc(-c2ccncc2)cc1 (configuration not stated) | 166 to 170 °C |
| COc1ccc([C@@H]2c3ccccc3C[C@@H]3CC(=O)NCCN32)cc1 (racemic) | 196 to 198 °C |
| CCCc1nc2c(N)nc3c(c2n1CC(C)(C)OCCS(C)(=O)=O)CCCC3 | 188 to 190 °C |
| CC(CN(C)C)Oc1ccc(-c2n[nH]c3ncccc23)cc1 (configuration not stated) | 130 to 132 °C |
| Cc1cc(C)nc(C(=O)c2[nH]c3ccc(Cl)cc3c2CC(=O)O)c1 | 233 to 235 °C |
| COc1ccc(C(=O)N(C)CC(O)COc2cccc3[nH]c4ccccc4c23)cc1OC (configuration not stated) | 77 to 80 °C |
| Cc1ccc(-c2nc3ccc(OCCN4CCCCC4)cc3n2-c2ccccc2)cc1C | 111 °C |
| CC(C)(O)c1cc2cc(OCC(=O)O)c(Cl)c(Cl)c2s1 | 194 to 196 °C |
| COCCOc1ccc(CC(C)CO)c(Oc2ncc(C(F)(F)F)cc2Cl)c1 (configuration not stated) | 84 to 86 °C |
| COc1ccc(N2CCN(c3c(C)c(C)c4c(c3C)C(O)(c3cccc(C)c3)C(C)(C)O4)CC2)cc1 (configuration not stated) | 122 to 125 °C |
| COc1ccccc1C(=O)c1cc2ccccc2[nH]1 | 129 to 130 °C |
| CCN(CC)CCOc1ccc(Nc2ncc3c(n2)N(C)C(=O)N(C(C)C)C3)cc1 | 154 °C |
| CCCCC(=O)Nc1c(C(=O)c2cccc(C)c2)[nH]c2cc(Cl)ccc12 | 124 to 126 °C |
| CNC(=S)N1CCSC1c1ccccc1OCCN1CCC(c2ccccc2)CC1 (configuration not stated) | 141 to 142 °C |
| CCOc1ccnc(F)c1NC(=O)OC(C)(C)C | 130 to 131 °C |
| O=C1NC(=O)C(c2c3n(c4ccccc24)CCC(CO)C3)=C1c1coc2ccccc12 (configuration not stated) | 246 to 248 °C |
| C=CCn1cc(Cl)cnc1=O | 130 to 131 °C |
| CC(C)c1nc(-c2ncn3c2[C@@H]2CCCN2C(=O)c2c(Cl)cccc2-3)no1 | 195 to 196 °C |
| Cc1onc(C(=O)c2ccccc2)c1NC(=O)CCl | 86 to 88 °C |
| NC(=O)C1(CCCNC2CC2)c2ccccc2-c2ccccc21 | 163 to 165 °C |
| O=C(OCC1OC(n2ccc(=O)[nH]c2=O)C(O)C1OC(=O)c1ccccc1)c1ccccc1 (configuration not stated) | 111 to 114 °C |
| CC(=O)c1cc(S(=O)(=O)c2ccccc2)ccc1O | 156 to 157 °C |
| CCOC(=O)c1c(-c2cccc(Cl)c2)noc1C | 71 to 73 °C |
| Nc1ccc2ncnc(Nc3cccc(Cl)c3)c2c1 | > 150 °C |
| O=C(Nc1ccc(Oc2cc(Cl)ncn2)cc1)Nc1ccc(Cl)c(C(F)(F)F)c1 | 180 to 181 °C |

| SMILES | melting point |
| --- | --- |
| COc1ccc(COc2cc(Sc3c(Cl)cc(C=O)cc3Cl)ccc2OC)cn1 | 102 to 104 °C |
| CCOc1c(C)c(N2CCN(c3ccc(F)cc3)CC2)c(C)c2c1OC(C)C2 (configuration not stated) | 136 to 138 °C |
| Clc1cc(-c2nnn[nH]2)nc(Cl)c1Cl | 197 to 198 °C |
| CC1Cc2ccccc2C1=NO (configuration not stated) | 82 to 91 °C |
| COc1ccc(-c2c(C3CCN(C)CC3)[nH]c(=O)c3ccccc23)cc1 | 209 to 211 °C |
| CC(C)(C)NS(=O)(=O)c1cncc(Br)c1 | 110 °C |
| OC(c1nnn[nH]1)c1ccccc1Cl (racemic) | 130 to 132 °C |
| O=C1CCc2c(Cl)cc(Cl)c(OS(=O)(=O)C(F)(F)F)c21 | 90 to 96 °C |
| COC(=O)c1cc(N)c(F)c(-c2ccc(Cl)c(OC)c2F)n1 | 204 to 206 °C |
| CN(C)c1c[nH]c2ncccc12 | 144 to 152 °C |
| O=C(Nc1ccc2ccccc2c1C(=O)O)OCc1cc2cc(-c3ccccc3)ccc2o1 | 174 to 177 °C |
| BrCC(=CSc1ccccc1Br)c1ccccc1 | 65 °C |
| COC(=O)CCSCCNC(=O)/C=C/C=C/c1ccccc1 | 58 to 60 °C |
| CC(=O)c1cnc(C(=O)C(C)(C)C)cn1 | 41 to 42.5 °C |
| CC(c1cc(Cl)cc(Cl)c1O)c1cc(F)cc(CO)c1O (configuration not stated) | 148 °C |
| O=C(O)C(Cc1ccccc1)Cn1ccnc1 (racemic) | 159 to 163 °C |
| Cn1nc(-c2ccccc2)c(OC(C)(C)C)c1-c1ccccc1 | 106 to 108 °C |
| COc1cccc(NC(=O)CC23CC4CC(CC(C4)C2)C3)c1C | 173 to 175 °C |
| N#Cc1cccc2c1CC(=NN)c1ccc(F)cc1S2 | 178 to 179 °C |
| O=C(CC1CCOCC1)Oc1cc(=O)n(-c2ccccc2)c2ncccc12 | 169 to 171 °C |
| CCOC(=O)NC(=S)CNc1ccc(C(=O)OC)c(S(=O)(=O)NC(C)(C)C)c1 | 110 °C |
| O=C(O)c1ccc(CCCc2ccccc2CCc2ccccc2)cc1 | 97 to 98 °C |
| Nc1nc(=O)n(CC2CCCO2)cc1F (configuration not stated) | 168 to 170 °C |
| CCOC(=O)Cn1ncc(CC)c1O | 77 to 78 °C |
